Results on one substance are retold here after US20260014278A1, “HYBRID PEPTIDE DENDRIMER SYSTEMS AND EXTRAHEPATIC DELIVERY” (NUNTIUS THERAPEUTICS LIMITED, priority 2022, published 2026).

The nature of data set [1]: Dynamic light scattering: hydrodynamic size and polydispersity index (PDI) of nanoparticles. It is filed as physicochemical. The method, boiled down: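 Hydrodynamic size measured by DLS (Stokes-Einstein), PDI from cumulants fit per ISO 13321/22412. Samples diluted 16× in 25 mM HEPES, water as dispersant, 25° C; PDI measured on dendrimer:nucleic acid 8:1 nanoparticles.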

A short description of data set [2]: Zeta potential of nanoparticles (electrophoretic light scattering). Format: physicochemical. The source says: Zeta potential is a measurement of the magnitude of the electrostatic or charge repulsion/attraction between particles. This can be determined by analysing particle mobility and charge (Zeta potential) using the Electrophoretic Light Scattering (ELS) technique.
Zeta potential is a measurement of the magnitude of the electrostatic or charge repulsion/attraction between particles. This can be determined by analysing particle mobility and charge (Zeta potential) using the Electrophoretic Light Scattering (ELS) technique. […] Parameters: reference material: polystyrene latex, dispersant: water, 25° C. The measurements of the zeta potential were carried out using the Zetasizer Advance Series—Pro (Malvern Panalytical Ltd, Malvern, UK) according to the manufacturer's instructions.

Setting [3] is: GSCG1,2-RHL N:P=0.6:1, DOTMA:DOPE, coated with GSGGSGGSCG1-EEEE, with/without CpG (mRNA:CpG w/w 9:1).
Setting [4] is: GSCG1,2-RHL and DOTMA:DOPE nanoparticles, 150 ug/mL mRNA, 40× dilution in 25 mM HEPES buffer.
Where [5] appears, read: mRNA, N:P 0.6:1, DOTMA:DOPE w/w 10:1, with or without 3 equivalents G1-EEEE with mannose coating.

As for (RHL)4(KRHL)2KGSC-NH2 [GSCG1,2-RHL], in data set [1] (setting [3]), the Hydrodynamic size is reported as 174 nm and the PDI is 0.17. In data set [1] (setting [4]), the “DLS measurement, Pdl” value amounted to 0.13 and the “DLS measurement, size” value stood at 184 nm. Besides, in data set [1] (setting [5]), the PDI is recorded as 0.1776 and the size was 149.5 nm. Also, the “zeta potential” value in data set [2] (setting [3]) was “+48 mV”. In data set [2] (GSCG1,2-RHL and DOTMA:DOPE nanoparticles, diluted 3× in 25 mM HEPES, then 60× in water), the Zeta potential measurement entry was “+33.5 mV”. Further, the “zeta potential” value in data set [2] (setting [5]) stood at 28.23 mV.
